# In publication PMC11904984, “The Gut Microbiota‐Xanthurenic Acid‐Aromatic Hydrocarbon Receptor Axis Mediates the Anticolitic Effects of Trilobatin” (Advanced Science, 2025):
# Target: T1, aromatic hydrocarbon receptor (AhR) (Homo sapiens, UniProt P35869)
# T1 construct: His-tagged recombinant human AhR (MST); recombinant human AhR (SPR)
# T1 sequence (P35869 11-848): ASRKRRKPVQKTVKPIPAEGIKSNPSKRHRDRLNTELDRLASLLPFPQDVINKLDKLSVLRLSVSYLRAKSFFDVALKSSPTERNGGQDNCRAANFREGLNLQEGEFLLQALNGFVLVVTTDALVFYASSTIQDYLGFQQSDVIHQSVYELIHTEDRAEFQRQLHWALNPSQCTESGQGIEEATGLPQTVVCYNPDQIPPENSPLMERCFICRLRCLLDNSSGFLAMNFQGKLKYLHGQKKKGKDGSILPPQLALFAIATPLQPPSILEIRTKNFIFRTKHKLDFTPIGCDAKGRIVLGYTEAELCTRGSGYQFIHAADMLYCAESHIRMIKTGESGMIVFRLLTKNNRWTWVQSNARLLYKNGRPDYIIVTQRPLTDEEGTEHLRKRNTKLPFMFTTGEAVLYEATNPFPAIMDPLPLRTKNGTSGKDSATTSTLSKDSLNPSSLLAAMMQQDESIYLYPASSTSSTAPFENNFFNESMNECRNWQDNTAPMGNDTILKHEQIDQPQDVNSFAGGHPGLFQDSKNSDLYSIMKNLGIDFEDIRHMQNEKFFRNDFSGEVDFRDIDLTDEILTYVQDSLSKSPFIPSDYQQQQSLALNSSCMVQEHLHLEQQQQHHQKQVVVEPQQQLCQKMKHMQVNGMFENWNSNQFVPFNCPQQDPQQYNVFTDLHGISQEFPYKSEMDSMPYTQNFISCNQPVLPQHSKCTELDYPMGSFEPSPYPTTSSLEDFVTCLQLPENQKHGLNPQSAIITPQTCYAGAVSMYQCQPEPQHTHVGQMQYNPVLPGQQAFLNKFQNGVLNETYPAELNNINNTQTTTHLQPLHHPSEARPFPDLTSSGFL
# Assay: SPR (Biacore, CM5 chip, immobilized AhR); also MST, KD […]
# Type: binding
smiles,measurement,value
"O=C(CCc1ccc(O)cc1)c1c(O)cc(O[C@@H]2O[C@H](CO)[C@@H](O)[C@H](O)[C@H]2O)cc1O [TLB, Trilobatin]",Kd,10.3 µM
